# Read-outs that look alike come from different tables or passages of the source.
# What was measured:
# [1] = test system: PD-1-positive CD4, CD8 and PD-1-negative CD4 T cells; assay: FACS analysis of PBMC for PD-1-positive and PD-1-negative T cells after RAD001 treatment; format: in vivo, human; conditions: adjusted for differences in baseline PD-1 expression; for decrease in PD-1-positive CD8 T cells: pooled RAD001 cohort compared to placebo cohort
# [2] = test system: A/H1N1/California/07/2009 influenza; assay: Serum anti-influenza IgG and IgM levels before and 4 weeks post influenza vaccination; format: in vivo, human; conditions: RAD001 versus placebo cohorts, Kruskal-Wallis rank sum test
# Description: FIGS. 30A and 30B are graphic representations of IgG and IgM levels before and after influenza vaccination. Levels of anti-A/H1N1/California/07/2009 influenza IgG and IgM were measured in serum obtained from subjects before and 4 weeks post influenza vaccination.
# JNL cells = assay: Single vector CD19 RCAR constructs in JNL cells, NFAT reporter activation by dimerization molecule; format: cell-based; conditions: nM to sub-nM doses
# From the text: The constructs and viral particles were made and tested essentially as described in Example 11. Viral particles were introduced into JNL cells and evaluated for activity essentially as described in Example 1 except that the target was CD19 (as opposed to EGFRviii).
# Construct 143775 was introduced into cells and the affect of dimerization molecule concentration on activation evaluated essentially as described in Example 14.
# [3] = Clinical trial in elderly volunteers: adverse events, safety and tolerability; format: in vivo, human; conditions: for Blood cholesterol increased, treatment-related AE / Conjunctivitis, treatment-related AE / Diarrhea, treatment-related AE / Dry mouth, treatment-related AE / Dyspepsia, treatment-related AE / Erythema, treatment-related AE / Fatigue, treatment-related AE / Headache, treatment-related AE / Insomnia, treatment-related AE / Limb discomfort, treatment-related AE / Low density lipoprotein increased, treatment-related AE / Mouth ulceration, treatment-related AE / Mucosal inflammation, treatment-related AE / Neutropenia, treatment-related AE / Oral pain, treatment-related AE / Paresthesia oral, treatment-related AE / Patients with AE(s), treatment-related / Pruritus, treatment-related AE / Stomatitis, treatment-related AE / Thrombocytopenia, treatment-related AE / Tongue ulceration, treatment-related AE / Total AE(s), treatment-related / Urinary tract infection, treatment-related AE: N = 53
# [4] = test system: Jurkat cells with NFAT-LUC reporter (JNL); assay: Activation of CD19 RCAR with extracellular FKBP/FRB switch (half and full switches) by RAD001, NFAT luciferase; format: cell-based; conditions: extracellular half switch 1; 5 nM and 50 nM
# Description: The RCAR constructs were expressed in a Jurkat reporter cell line. Jurkat cells with NFAT-LUC reporter (JNL) were grown to the density of 0.5×10^6/ml in Jurkat cell growth media with puromycin at 0.5 μg/ml. For each transfection 2.5×10^6 cells were spin down at 100 g for 10 minutes. Two μg of DNA per RCAR construct were used per transfection. Amaxa Nucleofector solution V and supplement I was mixed and 100 μl was added into the tube with DNA construct. The mixture was then added to the cells and transferred to the electroporation cuvette. Electroporation was done under setting X-001 using Amaxa Nucleofector II Device. 0.5 ml of growth media was added immediately after electroporation and the mixture were transferred into 2 ml growth media in one well of the 6-well plate.
# After one hour, RAD001 compound was applied at various concentrations: 0 nM, 0.01 nM, 0.03 nM, 0.1 nM, 0.3 nM, 1 nM, 5 nM, and 50 nM. Tissue culture plate was coated with 5 μg/ml of anti anti-CD19 antibody or isotype control for 2 hrs, blocked with the blocking buffer (DPBS with 5% serum) for 1 hour. The transfected cells with or without Rad001 were resuspended and added to the target plate with 100 μl per well and incubated for 18 hrs. Luciferase One Glo reagent 100 μl was added per well. The samples were incubated for 5 min at 37° C. and then luminescence was measured using Envision plate reader.
# [5] = cited from earlier work
compound,measurement,setting,value
"CO[C@H]1C[C@@H]2CC[C@@H](C)[C@@](O)(O2)C(=O)C(=O)N2CCCC[C@H]2C(=O)O[C@H]([C@H](C)C[C@@H]2CC[C@@H](OCCO)[C@H](OC)C2)CC(=O)[C@H](C)/C=C(\C)[C@@H](O)[C@@H](OC)C(=O)[C@H](C)C[C@H](C)/C=C/C=C/C=C/1C [RAD001, (1R,9S,12S,15R,16E,18R,19R,21R,23S,24E,26E,28E,30S,32S,35R)-1,18-dihydroxy-12-{(1R)-2-[(1S,3R,4R)-4-(2-hydroxyethoxy)-3-methoxycyclohexyl]-1-methylethyl}-19,30-dimethoxy-15,17,21,23,29,35-hexamethyl-11,36-dioxa-4-aza-tricyclo[30.3.1.04,9]hexatriaconta-16,24,26,28-tetraene-2,3,10,14,20-pentaone]",decrease in PD-1-positive CD8 T cells,[1]; week 6,37.4%
same,decrease in PD-1+ CD4 T cells,"[1]; week 6, pooled RAD cohort compared to placebo cohort",30.2%
same,decrease in PD-1-positive CD8 T cells,[1]; week 12,41.4%
same,decrease in PD-1-positive CD4 T cells,"[1]; week 12, pooled RAD cohort compared to placebo cohort",32.7%
same,change from baseline to 4 weeks post vaccination in anti-H1N1 influenza IgG levels,[2],No significant difference
same,change from baseline to 4 weeks post vaccination in anti-H1N1 influenza IgM levels,[2],No significant difference
same,activation of RCAR (Construct 143775) over dimerization molecule concentration,JNL cells,effective at a broad range of concentrations
same,"Blood cholesterol increased, treatment-related AE",[3]; RAD001 0.5 mg daily,2 (3.8%) n (%)
same,"Conjunctivitis, treatment-related AE",[3]; RAD001 0.5 mg daily,0 n (%)
same,"Diarrhea, treatment-related AE",[3]; RAD001 0.5 mg daily,1 (1.9%) n (%)
same,"Dry mouth, treatment-related AE",[3]; RAD001 0.5 mg daily,0 n (%)
same,"Dyspepsia, treatment-related AE",[3]; RAD001 0.5 mg daily,0 n (%)
same,"Erythema, treatment-related AE",[3]; RAD001 0.5 mg daily,0 n (%)
same,"Fatigue, treatment-related AE",[3]; RAD001 0.5 mg daily,0 n (%)
same,"Headache, treatment-related AE",[3]; RAD001 0.5 mg daily,0 n (%)
same,"Insomnia, treatment-related AE",[3]; RAD001 0.5 mg daily,1 (1.9%) n (%)
same,"Limb discomfort, treatment-related AE",[3]; RAD001 0.5 mg daily,0 n (%)
same,"Low density lipoprotein increased, treatment-related AE",[3]; RAD001 0.5 mg daily,2 (3.8%) n (%)
same,"Mouth ulceration, treatment-related AE",[3]; RAD001 0.5 mg daily,6 (11.3%) n (%)
same,"Mucosal inflammation, treatment-related AE",[3]; RAD001 0.5 mg daily,0 n (%)
same,"Neutropenia, treatment-related AE",[3]; RAD001 0.5 mg daily,0 n (%)
same,"Oral pain, treatment-related AE",[3]; RAD001 0.5 mg daily,0 n (%)
same,"Paresthesia oral, treatment-related AE",[3]; RAD001 0.5 mg daily,2 (3.8%) n (%)
same,"Patients with AE(s), treatment-related",[3]; RAD001 0.5 mg daily,22 (41.5%) n (%)
same,"Pruritus, treatment-related AE",[3]; RAD001 0.5 mg daily,0 n (%)
same,"Stomatitis, treatment-related AE",[3]; RAD001 0.5 mg daily,0 n (%)
same,"Thrombocytopenia, treatment-related AE",[3]; RAD001 0.5 mg daily,0 n (%)
same,"Tongue ulceration, treatment-related AE",[3]; RAD001 0.5 mg daily,3 (5.7%) n (%)
same,"Total AE(s), treatment-related",[3]; RAD001 0.5 mg daily,35 n (%)
same,"Urinary tract infection, treatment-related AE",[3]; RAD001 0.5 mg daily,0 n (%)
same,"Blood cholesterol increased, treatment-related AE",[3]; RAD001 5 mg weekly,2 (3.8%) n (%)
same,"Conjunctivitis, treatment-related AE",[3]; RAD001 5 mg weekly,2 (3.8%) n (%)
same,"Diarrhea, treatment-related AE",[3]; RAD001 5 mg weekly,4 (7.5%) n (%)
same,"Dry mouth, treatment-related AE",[3]; RAD001 5 mg weekly,0 n (%)
same,"Dyspepsia, treatment-related AE",[3]; RAD001 5 mg weekly,3 (5.7%) n (%)
same,"Erythema, treatment-related AE",[3]; RAD001 5 mg weekly,2 (3.8%) n (%)
same,"Fatigue, treatment-related AE",[3]; RAD001 5 mg weekly,2 (3.8%) n (%)
same,"Headache, treatment-related AE",[3]; RAD001 5 mg weekly,2 (3.8%) n (%)
same,"Insomnia, treatment-related AE",[3]; RAD001 5 mg weekly,2 (3.8%) n (%)
same,"Limb discomfort, treatment-related AE",[3]; RAD001 5 mg weekly,2 (3.8%) n (%)
same,"Low density lipoprotein increased, treatment-related AE",[3]; RAD001 5 mg weekly,1 (1.9%) n (%)
same,"Mouth ulceration, treatment-related AE",[3]; RAD001 5 mg weekly,2 (3.8%) n (%)
same,"Mucosal inflammation, treatment-related AE",[3]; RAD001 5 mg weekly,0 n (%)
same,"Neutropenia, treatment-related AE",[3]; RAD001 5 mg weekly,0 n (%)
same,"Oral pain, treatment-related AE",[3]; RAD001 5 mg weekly,2 (3.8%) n (%)
same,"Paresthesia oral, treatment-related AE",[3]; RAD001 5 mg weekly,0 n (%)
same,"Patients with AE(s), treatment-related",[3]; RAD001 5 mg weekly,20 (37.7%) n (%)
same,"Pruritus, treatment-related AE",[3]; RAD001 5 mg weekly,2 (3.8%) n (%)
same,"Stomatitis, treatment-related AE",[3]; RAD001 5 mg weekly,0 n (%)
same,"Thrombocytopenia, treatment-related AE",[3]; RAD001 5 mg weekly,0 n (%)
same,"Tongue ulceration, treatment-related AE",[3]; RAD001 5 mg weekly,1 (1.9%) n (%)
same,"Total AE(s), treatment-related",[3]; RAD001 5 mg weekly,46 n (%)
same,"Urinary tract infection, treatment-related AE",[3]; RAD001 5 mg weekly,0 n (%)
same,"Blood cholesterol increased, treatment-related AE",[3]; RAD001 20 mg weekly,2 (3.8%) n (%)
same,"Conjunctivitis, treatment-related AE",[3]; RAD001 20 mg weekly,0 n (%)
same,"Diarrhea, treatment-related AE",[3]; RAD001 20 mg weekly,1 (1.9%) n (%)
same,"Dry mouth, treatment-related AE",[3]; RAD001 20 mg weekly,2 (3.8%) n (%)
same,"Dyspepsia, treatment-related AE",[3]; RAD001 20 mg weekly,2 (3.8%) n (%)
same,"Erythema, treatment-related AE",[3]; RAD001 20 mg weekly,0 n (%)
same,"Fatigue, treatment-related AE",[3]; RAD001 20 mg weekly,4 (7.5%) n (%)
same,"Headache, treatment-related AE",[3]; RAD001 20 mg weekly,9 (17.0%) n (%)
same,"Insomnia, treatment-related AE",[3]; RAD001 20 mg weekly,1 (1.9%) n (%)
same,"Limb discomfort, treatment-related AE",[3]; RAD001 20 mg weekly,0 n (%)
same,"Low density lipoprotein increased, treatment-related AE",[3]; RAD001 20 mg weekly,2 (3.8%) n (%)
same,"Mouth ulceration, treatment-related AE",[3]; RAD001 20 mg weekly,9 (17.0%) n (%)
same,"Mucosal inflammation, treatment-related AE",[3]; RAD001 20 mg weekly,2 (3.8%) n (%)
same,"Neutropenia, treatment-related AE",[3]; RAD001 20 mg weekly,3 (5.7%) n (%)
same,"Oral pain, treatment-related AE",[3]; RAD001 20 mg weekly,1 (1.9%) n (%)
same,"Paresthesia oral, treatment-related AE",[3]; RAD001 20 mg weekly,0 n (%)
same,"Patients with AE(s), treatment-related",[3]; RAD001 20 mg weekly,27 (50.9%) n (%)
same,"Pruritus, treatment-related AE",[3]; RAD001 20 mg weekly,1 (1.9%) n (%)
same,"Stomatitis, treatment-related AE",[3]; RAD001 20 mg weekly,2 (3.8%) n (%)
same,"Thrombocytopenia, treatment-related AE",[3]; RAD001 20 mg weekly,2 (3.8%) n (%)
same,"Tongue ulceration, treatment-related AE",[3]; RAD001 20 mg weekly,0 n (%)
same,"Total AE(s), treatment-related",[3]; RAD001 20 mg weekly,109 n (%)
same,"Urinary tract infection, treatment-related AE",[3]; RAD001 20 mg weekly,2 (3.8%) n (%)
same,tolerability,"[3]; elderly volunteers, 6 weeks, particularly 0.5 mg daily and 5 mg weekly dosing regimens",well tolerated
same,number of severe AEs assessed as related to RAD001 (mouth ulcers),[3]; subject treated with 20 mg weekly RAD001,one
same,NFAT activity at the higher dosages of RAD001,[4],no inhibition of activity was observed
same,trough level of RAD001,[5]; 10 mg daily oncology dosing regimen,approximately 20 ng/ml
same,trough level of RAD001,[5]; 0.75-1.5 mg bid transplant dosing regimen,approximately 3 ng/ml
